Read-outs that look alike come from different tables or passages of the source.
Legend:
Assay type in all cases: cell-based
Vpu = target: T1, Vpu (Human immunodeficiency virus type 1 group M subtype B, UniProt P05919); assay: Bacterial bioassay, Vpu; conditions: mean bacterial bioassay score; Vpu of HIV
T1 construct: expressed in transfected cells
Excerpt: (§1) The bacterial bioassay method used in the present example to test the anti-viral activity of the compounds against different viral targets was described in detail in PCT/2004/000866, incorporated in its entirety herein by reference. Vpu, p7 and M referred to in the table are small membrane proteins encoded by HIV, HCV and Dengue viruses, respectively, which have functional activities supporting viral growth and/or replication.

HCV p7 = target: T2, HCV p7 (Hepatitis C virus genotype 1a, UniProt P27958); assay: Bacterial bioassay, HCV p7; design: scale not given here; conditions: mean bacterial bioassay score; p7 of HCV
T2 construct: expressed in transfected cells
Excerpt: as §1

Den M = target: T3, Den M (Dengue virus type 1, UniProt P33478); assay: Bacterial bioassay, Den M; design: scale not given here; conditions: mean bacterial bioassay score; M protein of Dengue virus
T3 construct: expressed in transfected cells
Excerpt: as §1

HIV-1 strain Ba-L = assay: HIV-1 Ba-L growth inhibition in primary macrophages (p24 ELISA); conditions: for IC50: Human immunodeficiency virus 1, BAL, Primary macrophage; for AI (Antiviral Index): calculated by formula from TC50 and IC50, HIV-1Ba-L in primary macrophages
Experimental: The inhibition specifically of HIV-1 growth by the compounds of the invention was tested in primary macrophages in vitro using a method similar to that used to assess antibody neutralization (VanCott T C et al (1999)). In the present case, the laboratory adapted HIV-1 strain Ba-L was used, which is known to infect macrophages.
Peripheral Blood Mononuclear Cells (PBMC) were prepared from healthy donors using buffy-coat packs obtained from the Australian Red Cross Blood Service (ARCBS). Blood was received the day following donation, and had been depleted of serum and platelets, leaving a small volume (less than 100 mL) of concentrated leukocytes.
Leukocytes were separated from blood cells and granulocytes by density gradient centrifugation (Ficoll Paque) and washed extensively in PBS^− (without Ca/Mg) to remove platelets. Recovered cells were allowed to adhere to plastic tissue culture flasks (Becton Dickinson) for 2 hr, 37° C., 5% CO2, in media (DMEM (high)/10% AB serum/50 ug/mL gentamicin/2 mM L-glutamine) during which time the myeloid cells formed an adherent monolayer leaving lymphocytes unattached.
Non-adherent lymphocytes were removed by washing with warm PBS^+ (with Ca/Mg) and were generally discarded. In some cases those cells were recovered and frozen in media/10% DMSO for use in viral stock infections. The adherent monocytes were recovered by scraping gently with a plastic cell scraper. The myeloid cells were then plated into 96-well plates at a cell concentration of 1.5×10^6/mL, and allowed to fully differentiate over a period of 14 days.
Macrophages were allowed to differentiate over a 14 day period, with media changes as required. On day 14, cells were infected in the presence of decreasing concentrations of BIT compounds over a range 0-10 μM. Samples of 25 μL culture supernatants were removed from each well on day 7 and fresh media plus compound dilution was added.
After 7 days the samples with and without compound were analysed to assess the level of virus present in the wells, using a p24 ELISA (Innotest). Virus levels in samples were converted to “percentage of control virus growth” values based on the controls (containing no compound). From that dose response curve (example FIG. 1) the IC50 was calculated and used as a measure of compound anti-HIV activity.

[1] = Cytotoxicity to cells in the viral inhibition assay (MTT assay); conditions: human, primary human macrophages, read-out: TC50 (the source's name)
Experimental: The toxicity of test compounds to cells in the viral inhibition assay was determined using the MTT assay (Pauwels R, et al. (1988); D'Cruz O J et al. (1999); Joo H. (2003)). This method utilises Thiazolyl Blue (MTT), which is added to the cell culture (100 ug/well), and incubated for 4-5 hours whilst the live, metabolically active cells convert the chemical to its purple coloured metabolite, which forms intracellular crystals. The purple colour is measured colourimetrically (570-590 nm) once cells have been permeabilised using acidified isopropanol containing 10% triton X-100. The most intense colour development occurs in wells where the metabolising cells are most numerous. […] Those values were estimated manually from the Percentage Viability vs Concentration dose response curves (FIG. 1). The compound toxicity to cells in culture was taken into account in inhibition experiments and in separate experiments involving increased concentrations of compound. TC50 values were estimated in separate experiments (not shown) where concentrations of compound were greater.

[2] = 168 h, against HIV-1Ba-L in primary macrophages, p24 ELISA after 7 days, estimated from dose response curves (FIG. 1), 0-10 μM, read-out: IC50
[3] = 50% cell viability, MTT assay, estimated in separate experiments at greater compound concentrations
[4] = additional compounds, same assay system (HIV-1Ba-L, primary macrophages), estimated from dose response curves, read-out: Estimated IC50
[5] = additional compounds, same assay system, MTT

T3 sequence (P33478 206-280): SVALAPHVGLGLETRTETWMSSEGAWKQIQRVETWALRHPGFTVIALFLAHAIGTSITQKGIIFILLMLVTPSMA
T1 sequence (P05919 whole entry): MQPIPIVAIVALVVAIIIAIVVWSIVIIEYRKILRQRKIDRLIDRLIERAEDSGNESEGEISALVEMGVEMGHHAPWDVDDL
T2 sequence (P27958 747-809): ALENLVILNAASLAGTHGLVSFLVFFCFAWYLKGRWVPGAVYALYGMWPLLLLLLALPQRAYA

Question: Which “Average Bacterial Assay Score, Vpu” value (Vpu) does the source give for N=C(N)NC(=O)/C=C/c1cccc(C(=O)c2ccccc2)c1 [BIT216, (3-benzoyl)cinnamoylguanidine] here?
Answer: 1.3

Question: What about the “Average Bacterial Assay Score, HCV p7” value (HCV p7) of the same molecule?
Answer: 1.3

Question: And the “Average Bacterial Assay Score, Den M” value (Den M)?
Answer: 1.5

Question: And the IC50 (HIV-1 strain Ba-L; [2])?
Answer: 0.9 µM

Question: And the “AI (Antiviral Index)” value (HIV-1 strain Ba-L)?
Answer: 28-550

Question: And the CC50 [1, 3]?
Answer: 25 to 495 µM

Question: With N=C(N)NC(=O)/C=C/c1cccc2c1OCO2 [BIT217, 2,3-methylenedioxycinnamoyl guanidine] as the molecule, how does the “Average Bacterial Assay Score, Vpu” value (Vpu) read?
Answer: 1.8

Question: And the “Average Bacterial Assay Score, HCV p7” value (HCV p7)?
Answer: 1.0

Question: And the IC50 (HIV-1 strain Ba-L; [2])?
Answer: 1.1 µM

Question: And the “AI (Antiviral Index)” value (HIV-1 strain Ba-L)?
Answer: >91

Question: What about the CC50 [1, 3] of the same molecule?
Answer: > 100 µM

Question: With Cc1cccc2cc(C(=O)NC(=N)N)ccc12 [BIT218, 5-methyl-2-napthoylguanidine] as the molecule, how does the “Average Bacterial Assay Score, Vpu” value (Vpu) read?
Answer: 1.8

Question: What about the “Average Bacterial Assay Score, HCV p7” value (HCV p7) of the same molecule?
Answer: 1.7

Question: And the “Average Bacterial Assay Score, Den M” value (Den M)?
Answer: 1.3

Question: What about the IC50 (HIV-1 strain Ba-L; [2]) of the same molecule?
Answer: 1.56 µM

Question: And the “AI (Antiviral Index)” value (HIV-1 strain Ba-L)?
Answer: >192

Question: And the CC50 [1, 3]?
Answer: > 300 µM

Question: With N=C(N)NC(=O)/C=C/c1cccc2c1CCC2 [BIT222, 3(indan-4-yl)-propenoylguanidine] as the molecule, how does the “Average Bacterial Assay Score, Vpu” value (Vpu) read?
Answer: 1.2

Question: And the “Average Bacterial Assay Score, HCV p7” value (HCV p7)?
Answer: 2.0

Question: What about the “Average Bacterial Assay Score, Den M” value (Den M) of the same molecule?
Answer: 2.2

Question: What about the IC50 (HIV-1 strain Ba-L; [2]) of the same molecule?
Answer: > 10 µM

Question: And the “AI (Antiviral Index)” value (HIV-1 strain Ba-L)?
Answer: >10

Question: What about the CC50 [1, 3] of the same molecule?
Answer: > 100 µM

Question: Which “Average Bacterial Assay Score, Vpu” value (Vpu) does the source give for COc1ccc2cc(C(=O)NC(=N)N)ccc2c1Br [BIT223, 5-bromo-6-methoxy-2-napthoylguanidine] here?
Answer: 0

Question: What about the “Average Bacterial Assay Score, HCV p7” value (HCV p7) of the same molecule?
Answer: 0.0

Question: What about the IC50 (HIV-1 strain Ba-L; [2]) of the same molecule?
Answer: 0.3 µM

Question: And the “AI (Antiviral Index)” value (HIV-1 strain Ba-L)?
Answer: >1000

Question: And the CC50 [1, 3]?
Answer: > 300 µM

Question: What does the source list for N=C(N)NC(=O)c1ccc2c(-c3ccsc3)cccc2c1 [BIT224, 5-thiophen-3-yl-2-naphthoylguanidine]?
Answer: Average Bacterial Assay Score, Vpu (Vpu): 2.2; Average Bacterial Assay Score, HCV p7 (HCV p7): 1.1; Average Bacterial Assay Score, Den M (Den M): 1.3; IC50 (HIV-1 strain Ba-L; [2]): 1 µM; AI (Antiviral Index) (HIV-1 strain Ba-L): >100; CC50 [1, 3]: > 200 µM

Question: Which “Average Bacterial Assay Score, Vpu” value (Vpu) does the source give for Cn1cc(-c2cccc3cc(C(=O)NC(=N)N)ccc23)cn1 [BIT225, 5-(1-methylpyrazol-4-yl)2-naphthoylguanidine] here?
Answer: 1.4

Question: What about the “Average Bacterial Assay Score, HCV p7” value (HCV p7) of the same molecule?
Answer: 1.2

Question: What about the “Average Bacterial Assay Score, Den M” value (Den M) of the same molecule?
Answer: 0.9

Question: What about the IC50 (HIV-1 strain Ba-L; [2]) of the same molecule?
Answer: 2.5 µM

Question: What about the “AI (Antiviral Index)” value (HIV-1 strain Ba-L) of the same molecule?
Answer: >80

Question: What about the CC50 [1, 3] of the same molecule?
Answer: > 200 µM

Question: For COc1c(C(=O)NC(=N)N)ccc2ccccc12 [BIT301, (1-methoxy-2-napthoyl)guanidine], which “Average Bacterial Assay Score, Vpu” value (Vpu) is on record?
Answer: 1.54

Question: What about the “Average Bacterial Assay Score, HCV p7” value (HCV p7) of the same molecule?
Answer: 0.25

Question: What about the “Average Bacterial Assay Score, Den M” value (Den M) of the same molecule?
Answer: 0.50

Question: And the IC50 (HIV-1 strain Ba-L; [4])?
Answer: < 2.5 µM

Question: What about the CC50 [1, 5] of the same molecule?
Answer: > 50 µM

Question: Which “Average Bacterial Assay Score, Vpu” value (Vpu) does the source give for COc1cc2ccccc2cc1C(=O)NC(=N)N [BIT302, (3-methoxy-2-napthoyl)guanidine] here?
Answer: 1.04

Question: What about the “Average Bacterial Assay Score, HCV p7” value (HCV p7) of the same molecule?
Answer: 0.42

Question: What about the “Average Bacterial Assay Score, Den M” value (Den M) of the same molecule?
Answer: 0.50

Question: And the IC50 (HIV-1 strain Ba-L; [4])?
Answer: < 2.5 µM

Question: What about the CC50 [1, 5] of the same molecule?
Answer: > 50 µM

Question: For N=C(N)NC(=O)c1ccc2c(Br)cccc2c1 [BIT303, (5-bromo-2-napthoyl)guanidine], which “Average Bacterial Assay Score, Vpu” value (Vpu) is on record?
Answer: 0.22

Question: And the “Average Bacterial Assay Score, HCV p7” value (HCV p7)?
Answer: 0.00

Question: What about the “Average Bacterial Assay Score, Den M” value (Den M) of the same molecule?
Answer: 2.10

Question: And the IC50 (HIV-1 strain Ba-L; [4])?
Answer: < 2.5 µM

Question: What about the CC50 [1, 5] of the same molecule?
Answer: 10 to 50 µM

Question: For COc1cc(C(=O)NC(=N)N)c(OC)c2ccccc12 [BIT304, (1,4-dimethoxy-2-napthoyl)guanidine], which “Average Bacterial Assay Score, Vpu” value (Vpu) is on record?
Answer: 0.62

Question: What about the “Average Bacterial Assay Score, HCV p7” value (HCV p7) of the same molecule?
Answer: 0.33

Question: And the “Average Bacterial Assay Score, Den M” value (Den M)?
Answer: 1.90

Question: What about the IC50 (HIV-1 strain Ba-L; [4]) of the same molecule?
Answer: < 10 µM

Question: What about the CC50 [1, 5] of the same molecule?
Answer: 10 to 50 µM

Question: What does the source list for N=C(N)NC(=O)c1ccc2cc(-c3ccsc3)ccc2c1 [BIT305, (6-(3-thienyl)-2-napthoyl)guanidine]?
Answer: Average Bacterial Assay Score, Vpu (Vpu): 0.38; Average Bacterial Assay Score, HCV p7 (HCV p7): 0.00; Average Bacterial Assay Score, Den M (Den M): 1.15; IC50 (HIV-1 strain Ba-L; [4]): < 0.63 µM; CC50 [1, 5]: < 10 µM

Question: What does the source list for Cc1ccc2cc(C(=O)NC(=N)N)ccc2c1 [BIT306, (6-methyl-2-napthoyl)guanidine]?
Answer: Average Bacterial Assay Score, Vpu (Vpu): 0.52; Average Bacterial Assay Score, HCV p7 (HCV p7): 0.25; Average Bacterial Assay Score, Den M (Den M): 2.53; IC50 (HIV-1 strain Ba-L; [4]): < 10 µM; CC50 [1, 5]: 10 to 50 µM

From patent publication US9440926B2, “Antiviral compounds and methods” (Biotron Limited, priority 2005, dated 2016)
